Results from PubChem BioAssay (NCI).
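The compound was tested at five concentrations on cells cultured in 96-well plates, with a 48-hour exposure period. At the TGI there is no net growth.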

Tests used:
Experiment in all cases: NCI-60 cell line screen, 48 h
UACC-62 melanoma = test system: UACC-62 melanoma
RPMI-8226 leukemia = test system: RPMI-8226 leukemia
SF-295 CNS = test system: SF-295 CNS
OVCAR-5 ovarian = test system: OVCAR-5 ovarian
COLO 205 colon = test system: COLO 205 colon
A498 renal = test system: A498 renal
NCI-H460 lung = test system: NCI-H460 lung
RXF 393 renal = test system: RXF 393 renal
U251 CNS = test system: U251 CNS
MDA-N = test system: MDA-N
SW-620 colon = test system: SW-620 colon
IGROV1 ovarian = test system: IGROV1 ovarian
HOP-62 NSCLC = test system: HOP-62 NSCLC
SNB-19 CNS = test system: SNB-19 CNS
MDA-MB-231 breast = test system: MDA-MB-231 breast
MOLT-4 leukemia = test system: MOLT-4 leukemia
PC-3 prostate = test system: PC-3 prostate
MDA-MB-435 = test system: MDA-MB-435
BT-549 breast = test system: BT-549 breast
K-562 leukemia = test system: K-562 leukemia
SK-MEL-28 melanoma = test system: SK-MEL-28 melanoma
HCT-15 colon = test system: HCT-15 colon
HCC-2998 colon = test system: HCC-2998 colon
TK-10 renal = test system: TK-10 renal
MCF7 breast = test system: MCF7 breast
HOP-92 NSCLC = test system: HOP-92 NSCLC
786-0 renal = test system: 786-0 renal
OVCAR-3 ovarian = test system: OVCAR-3 ovarian
ACHN renal = test system: ACHN renal
OVCAR-8 ovarian = test system: OVCAR-8 ovarian
SK-OV-3 ovarian = test system: SK-OV-3 ovarian
SK-MEL-2 melanoma = test system: SK-MEL-2 melanoma
SK-MEL-5 melanoma = test system: SK-MEL-5 melanoma
UO-31 renal = test system: UO-31 renal
LOX IMVI melanoma = test system: LOX IMVI melanoma
NCI-H23 lung = test system: NCI-H23 lung
HT29 colon = test system: HT29 colon
OVCAR-4 ovarian = test system: OVCAR-4 ovarian
SR leukemia = test system: SR leukemia
M14 melanoma = test system: M14 melanoma
T-47D breast = test system: T-47D breast
NCI-H226 lung = test system: NCI-H226 lung
SF-268 CNS = test system: SF-268 CNS
SN12C renal = test system: SN12C renal
DU-145 prostate = test system: DU-145 prostate
SF-539 CNS = test system: SF-539 CNS
UACC-257 melanoma = test system: UACC-257 melanoma
A549 NSCLC = test system: A549 NSCLC
EKVX NSCLC = test system: EKVX NSCLC
NCI/ADR-RES ovarian = test system: NCI/ADR-RES ovarian
MALME-3M melanoma = test system: MALME-3M melanoma
HL-60(TB) leukemia = test system: HL-60(TB) leukemia
HS 578T breast = test system: HS 578T breast
HCT-116 colon = test system: HCT-116 colon
CCRF-CEM leukemia = test system: CCRF-CEM leukemia
CAKI-1 renal = test system: CAKI-1 renal
NCI-H522 lung = test system: NCI-H522 lung
KM12 colon = test system: KM12 colon
SNB-75 CNS = test system: SNB-75 CNS

SMILES: CC(C)(C)c1ccc(C(C)(C)C)c(N2C(=O)[C@@H]3[C@@H]4C=C[C@@H](C4)[C@]3(C)C2=O)c1
- TGI (UACC-62 melanoma): 46.7 µM
- TGI (RPMI-8226 leukemia): 49.1 µM
- TGI (SF-295 CNS): > 100 µM
- TGI (OVCAR-5 ovarian): > 100 µM
- TGI (COLO 205 colon): > 100 µM
- TGI (A498 renal): 69.8 µM
- TGI (NCI-H460 lung): > 100 µM
- TGI (RXF 393 renal): 32.2 µM
- TGI (U251 CNS): 52.5 µM
- TGI (MDA-N): 31.9 µM
- TGI (SW-620 colon): 62.6 µM
- TGI (IGROV1 ovarian): 39.9 µM
- TGI (HOP-62 NSCLC): > 100 µM
- TGI (SNB-19 CNS): > 100 µM
- TGI (MDA-MB-231 breast): > 100 µM
- TGI (MOLT-4 leukemia): 61 µM
- TGI (PC-3 prostate): 72.6 µM
- TGI (MDA-MB-435): 32.4 µM
- TGI (BT-549 breast): 57.7 µM
- TGI (K-562 leukemia): > 100 µM
- TGI (SK-MEL-28 melanoma): > 100 µM
- TGI (HCT-15 colon): 42.9 µM
- TGI (HCC-2998 colon): 29.1 µM
- TGI (TK-10 renal): > 100 µM
- TGI (MCF7 breast): > 100 µM
- TGI (HOP-92 NSCLC): 9.64 µM
- TGI (786-0 renal): 40.2 µM
- TGI (OVCAR-3 ovarian): 53 µM
- TGI (ACHN renal): > 100 µM
- TGI (OVCAR-8 ovarian): 33.4 µM
- TGI (SK-OV-3 ovarian): > 100 µM
- TGI (SK-MEL-2 melanoma): 53.1 µM
- TGI (SK-MEL-5 melanoma): > 100 µM
- TGI (UO-31 renal): > 100 µM
- TGI (LOX IMVI melanoma): 26.8 µM
- TGI (NCI-H23 lung): > 100 µM
- TGI (HT29 colon): > 100 µM
- TGI (OVCAR-4 ovarian): 26.7 µM
- TGI (SR leukemia): 39.9 µM
- TGI (M14 melanoma): 51.3 µM
- TGI (T-47D breast): 82.6 µM
- TGI (NCI-H226 lung): > 100 µM
- TGI (SF-268 CNS): 74 µM
- TGI (SN12C renal): 52.3 µM
- TGI (DU-145 prostate): 53.5 µM
- TGI (SF-539 CNS): > 100 µM
- TGI (UACC-257 melanoma): 74.4 µM
- TGI (A549 NSCLC): > 100 µM
- TGI (EKVX NSCLC): > 100 µM
- TGI (NCI/ADR-RES ovarian): > 100 µM
- TGI (MALME-3M melanoma): 53 µM
- TGI (HL-60(TB) leukemia): 40.4 µM
- TGI (HS 578T breast): 59.9 µM
- TGI (HCT-116 colon): 40.9 µM
- TGI (CCRF-CEM leukemia): 32 µM
- TGI (CAKI-1 renal): > 100 µM
- TGI (NCI-H522 lung): 47.4 µM
- TGI (KM12 colon): > 100 µM

SMILES: Cn1c(-c2ccccc2)cc(-c2ccsc2)c1-c1ccsc1
- TGI (UACC-62 melanoma): > 100 µM
- TGI (RPMI-8226 leukemia): > 100 µM
- TGI (SF-295 CNS): > 100 µM
- TGI (OVCAR-5 ovarian): > 100 µM
- TGI (COLO 205 colon): > 100 µM
- TGI (A498 renal): > 100 µM
- TGI (NCI-H460 lung): > 100 µM
- TGI (RXF 393 renal): > 100 µM
- TGI (U251 CNS): > 100 µM
- TGI (MDA-N): > 100 µM
- TGI (SW-620 colon): > 100 µM
- TGI (IGROV1 ovarian): > 100 µM
- TGI (HOP-62 NSCLC): > 100 µM
- TGI (SNB-19 CNS): > 100 µM
- TGI (MDA-MB-231 breast): > 100 µM
- TGI (MOLT-4 leukemia): > 100 µM
- TGI (PC-3 prostate): > 100 µM
- TGI (MDA-MB-435): > 100 µM
- TGI (BT-549 breast): > 100 µM
- TGI (K-562 leukemia): > 100 µM
- TGI (SK-MEL-28 melanoma): > 100 µM
- TGI (HCT-15 colon): > 100 µM
- TGI (HCC-2998 colon): > 100 µM
- TGI (TK-10 renal): > 100 µM
- TGI (MCF7 breast): > 100 µM
- TGI (HOP-92 NSCLC): > 100 µM
- TGI (786-0 renal): > 100 µM
- TGI (OVCAR-3 ovarian): > 100 µM
- TGI (ACHN renal): > 100 µM
- TGI (OVCAR-8 ovarian): > 100 µM
- TGI (SK-OV-3 ovarian): > 100 µM
- TGI (SNB-75 CNS): > 100 µM
- TGI (SK-MEL-2 melanoma): > 100 µM
- TGI (SK-MEL-5 melanoma): > 100 µM
- TGI (UO-31 renal): > 100 µM
- TGI (LOX IMVI melanoma): > 100 µM
- TGI (NCI-H23 lung): > 100 µM
- TGI (HT29 colon): > 100 µM
- TGI (OVCAR-4 ovarian): > 100 µM
- TGI (SR leukemia): > 100 µM
- TGI (M14 melanoma): > 100 µM
- TGI (T-47D breast): > 100 µM
- TGI (NCI-H226 lung): > 100 µM
- TGI (SF-268 CNS): > 100 µM
- TGI (SN12C renal): > 100 µM
- TGI (DU-145 prostate): > 100 µM
- TGI (SF-539 CNS): > 100 µM
- TGI (UACC-257 melanoma): > 100 µM
- TGI (A549 NSCLC): > 100 µM
- TGI (EKVX NSCLC): > 100 µM
- TGI (NCI/ADR-RES ovarian): > 100 µM
- TGI (HL-60(TB) leukemia): > 100 µM
- TGI (HS 578T breast): > 100 µM
- TGI (HCT-116 colon): > 100 µM
- TGI (CCRF-CEM leukemia): > 100 µM
- TGI (CAKI-1 renal): > 100 µM
- TGI (KM12 colon): > 100 µM

SMILES: C1CSC(Sc2nc(SC3=NCCS3)nc(SC3=NCCS3)n2)=N1
- TGI (UACC-62 melanoma): > 100 µM
- TGI (RPMI-8226 leukemia): > 100 µM
- TGI (SF-295 CNS): > 100 µM
- TGI (OVCAR-5 ovarian): > 100 µM
- TGI (COLO 205 colon): > 100 µM
- TGI (A498 renal): > 100 µM
- TGI (NCI-H460 lung): > 100 µM
- TGI (RXF 393 renal): > 100 µM
- TGI (U251 CNS): > 100 µM
- TGI (MDA-N): > 100 µM
- TGI (SW-620 colon): > 100 µM
- TGI (IGROV1 ovarian): > 100 µM
- TGI (HOP-62 NSCLC): > 100 µM
- TGI (SNB-19 CNS): > 100 µM
- TGI (MDA-MB-231 breast): > 100 µM
- TGI (MOLT-4 leukemia): > 100 µM
- TGI (PC-3 prostate): > 100 µM
- TGI (MDA-MB-435): > 100 µM
- TGI (BT-549 breast): > 100 µM
- TGI (K-562 leukemia): > 100 µM
- TGI (SK-MEL-28 melanoma): > 100 µM
- TGI (HCT-15 colon): > 100 µM
- TGI (HCC-2998 colon): > 100 µM
- TGI (TK-10 renal): > 100 µM
- TGI (MCF7 breast): > 100 µM
- TGI (HOP-92 NSCLC): > 100 µM
- TGI (786-0 renal): > 100 µM
- TGI (OVCAR-3 ovarian): > 100 µM
- TGI (ACHN renal): > 100 µM
- TGI (OVCAR-8 ovarian): > 100 µM
- TGI (SK-OV-3 ovarian): > 100 µM
- TGI (SK-MEL-2 melanoma): > 100 µM
- TGI (SK-MEL-5 melanoma): > 100 µM
- TGI (UO-31 renal): > 100 µM
- TGI (LOX IMVI melanoma): > 100 µM
- TGI (NCI-H23 lung): > 100 µM
- TGI (HT29 colon): > 100 µM
- TGI (OVCAR-4 ovarian): > 100 µM
- TGI (SR leukemia): > 100 µM
- TGI (M14 melanoma): > 100 µM
- TGI (T-47D breast): > 100 µM
- TGI (NCI-H226 lung): > 100 µM
- TGI (SF-268 CNS): > 100 µM
- TGI (SN12C renal): > 100 µM
- TGI (DU-145 prostate): > 100 µM
- TGI (SF-539 CNS): > 100 µM
- TGI (UACC-257 melanoma): > 100 µM
- TGI (A549 NSCLC): > 100 µM
- TGI (EKVX NSCLC): > 100 µM
- TGI (NCI/ADR-RES ovarian): > 100 µM
- TGI (MALME-3M melanoma): > 100 µM
- TGI (HL-60(TB) leukemia): > 100 µM
- TGI (HS 578T breast): > 100 µM
- TGI (HCT-116 colon): > 100 µM
- TGI (CCRF-CEM leukemia): > 100 µM
- TGI (CAKI-1 renal): > 100 µM
- TGI (NCI-H522 lung): > 100 µM
- TGI (KM12 colon): > 100 µM
